# In paper PMC5760651, “Peptidomimetic blockade of MYB in acute myeloid leukemia” (Nature Communications, 2018):
# Non-standard residues stand in square brackets, D forms with d. Residues, ends and D or L forms follow the SMILES beside them.
# Tests used:
# [1] = system: MV-411 cells; test: H3K27Ac ChIP-PCR at the BCL2 enhancer; format: cell-based, human; conditions: 20 μM, 24 h, ChIP-qPCR, compared to TG3 or untreated control, p = 8.6e-3
# Description: Cross-linking was ended by the addition of 1/20 volume of 2.5 M Glycine for 5 min at room temperature followed by cell lysis and sonication ([…] Covaris sonicator) to obtain 100- to 500-bp chromatin fragments. H3K27Ac Rabbit polyclonal antibody (Abcam, #4729) was conjugated to Protein A and G Dynabeads per manufacturer's instructions (Thermo Fischer Scientific). Lysates were incubated overnight at 4 °C with antibody-conjugated beads in suspension. Precipitates were then washed sequentially with cold washing solution (1% NP-40, […], 50 mM Hepes-KOH, pH 7.6, 500 mM LiCl, 0.7% Na-Deoxycholate) and then washing solution (50 mM Tris-HCL, pH 8.0, 10 mM EDTA, 50 mM NaCl), then eluted in elution buffer (50 mM Tris-HCL, pH 8.0, 10 mM EDTA, 1% SDS). Reversal of crosslinks in elution buffer overnight at 65 °C followed by digestion of RNA and protein using RNase (Roche, Catalog No. 111119915-001) and Proteinase K (Roche, Catalog No. 03115828001). DNA purification was performed using PureLink PCR Purification Kit per manufacturer's protocol (Invitrogen). qPCR was performed as described below.
# [2] = system: MV-411 cells; test: Growth and survival of MV-411 cells with ectopic BCL2 (MIG-BCL2) or empty MIG vector; format: cell-based, human; conditions: 20 μM
# Description: Cells were resuspended and plated at a concentration of 2 × 10^5 cells in 200 μl in 96-well tissue culture plates. Media with peptides was replaced every 48 h. To assess the number of viable cells, cells were resuspended in PBS and 10 µl of suspension was mixed in a 1:1 ratio with 0.4% Trypan Blue (Thermo Fisher) and counted using a hemacytometer (Hausser Scientific, Horsham, PA, USA). To assess viability using an ATP-based assay, cell viability was assessed using the CellTiter-Glo Luminescent Viability assay, according to the manufacturer’s instructions (Promega). Luminescence was recorded using the Infinite M1000Pro plate reader using integration time of 250 ms (Tecan).
# The MIG-BCL2 vector was packaged using pUMVc and pCMV-VSVG vectors in HEK 293T cells and the FuGENE 6 transfection reagent, according to manufacturer’s instructions (Promega). Virus supernatant was collected at 48 and 72 h post transfection, pooled, filtered and stored at −80 °C. Cells were transduced with virus particles at a multiplicity of infection of 1 by spin inoculation for 90 min at 3500 rpm at 35 °C in the presence of 8 μg/ml hexadimethrine bromide. Two days after transduction, cells were isolated using fluorescence-activated cell sorting (FACSAria III, BD Bioscience, San Jose, CA, USA).
smiles,measurement,setting,value
CC[C@@H](C)[C@@H](NC(=O)[C@@H](CCCCN)NC(=O)[C@@H](CCC(=O)O)NC(=O)[C@@H](CC(C)C)NC(=O)[C@@H](CCC(=O)O)NC(=O)[C@@H](CC(C)C)NC(=O)[C@@H](CC(C)C)NC(=O)[C@@H](CC(C)C)NC(=O)[C@@H](CCSC)NC(=O)[C@@H](CO)NC(=O)[C@H](NC(=O)[C@@H](CCC(=O)O)NC(=O)[C@@H](CC(N)=O)NC(=O)[C@@H](CCC(=O)O)NC(=O)[C@@H](CC(C)C)NC(=O)[C@@H](CCCCN)NC(C)=O)[C@H](C)O)C(=O)N[C@H](CCCNC(=N)N)C(=O)N[C@H](CCCCN)C(=O)NCC(=O)NCC(=O)N[C@H](CCCNC(=N)N)C(=O)N[C@H](CCCNC(=N)N)C(=O)N[C@H](CCCNC(=N)N)C(=O)N[C@H](CCC(N)=O)C(=O)N[C@H](CCCNC(=N)N)C(=O)N[C@H](CCCNC(=N)N)C(=O)N[C@H](CCCCN)C(=O)N[C@H](CCCCN)C(=O)N[C@H](CCCNC(=N)N)C(=O)NCC(=O)N[C@H](Cc1ccc(O)cc1)C(N)=O [MYBMIM] (Ac-[dK][dL][dE][dN][dE][dT][dS][dM][dL][dL][dL][dE][dL][dE][dK][dI][dR][dK]GG[dR][dR][dR][dQ][dR][dR][dK][dK][dR]G[dY]-NH2),H3K27Ac at the BCL2 enhancer,[1],significant albeit incomplete reduction
same,Cell growth and survival of mock-treated and MIG empty vector control transduced MV-411 cells,[2]; p = 0.003,significant reduction of cell growth and survival
same,MYBMIM-induced apoptosis in cells ectopically overexpressing BCL2,[2]; MV-411 MIG-BCL2 cells,"largely, though not completely, rescued"
